Here are results for 116 compounds from ChEMBL document CHEMBL1159104, “Potent transglutaminase inhibitors, aryl beta-aminoethyl ketones” (Bioorg Med Chem Lett, 2010).

This assay deals with T1, Protein-glutamine gamma-glutamyltransferase (Cavia porcellus, UniProt Q7M0F8).
T1 sequence (Q7M0F8 whole entry): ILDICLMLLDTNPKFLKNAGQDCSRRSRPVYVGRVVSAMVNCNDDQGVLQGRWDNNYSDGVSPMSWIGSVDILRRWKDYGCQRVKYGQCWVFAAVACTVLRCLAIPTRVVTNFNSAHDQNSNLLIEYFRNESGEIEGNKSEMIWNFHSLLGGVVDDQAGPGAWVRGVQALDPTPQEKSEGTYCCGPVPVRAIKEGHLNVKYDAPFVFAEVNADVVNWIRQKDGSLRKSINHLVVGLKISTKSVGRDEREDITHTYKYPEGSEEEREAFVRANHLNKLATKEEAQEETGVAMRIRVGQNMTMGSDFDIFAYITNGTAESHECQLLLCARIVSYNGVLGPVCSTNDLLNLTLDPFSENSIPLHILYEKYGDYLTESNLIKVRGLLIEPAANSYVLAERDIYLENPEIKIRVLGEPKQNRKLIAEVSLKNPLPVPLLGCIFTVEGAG
Briefly: Inhibition of guinea pig liver transglutaminase.

For `CC(C)N(CCC(=O)c1ccccc1)Cc1ccccc1`, half-maximal inhibition (IC50) was put at 5600 nM.
`CN(CCO)CCC(=O)c1ccsc1` returned an IC50 of 14000 nM.
As for `CC(C)(C)N(CCO)CCC(=O)c1cnccn1`, the figure is 2700 nM; as for `O=C(CCN(CCO)Cc1ccccc1)c1ccc(Cl)s1`, 1500 nM.
As for `CCN(CCC(=O)c1ccc(Br)s1)Cc1ccccc1`, the figure is 610 nM; as for `CN(CCO)CCC(=O)c1ccccn1`, above 30000 nM; as for `CN(CCO)CCC(=O)c1cccnc1`, 5200 nM.
In the case of `CCc1nccnc1C(=O)CCN(Cc1ccccc1)C(C)C`, 920 nM corresponded to half-maximal inhibition (IC50). This IC50 is about 5.7-fold lower than that of the compound before.
Compound `CC(C)N(CCO)CCC(=O)c1ccc2ccccc2c1` yielded an IC50 of 16000 nM. Compared with the last compound, the IC50 is about 17-fold higher.
For `CC(C)(C)N(CCC(=O)c1ccc(Br)s1)Cc1ccccc1` the value was 81 nM; for `CC(C)N(CCC(=O)c1ccc(C#N)cc1)Cc1ccccc1`, 590 nM; for `CC(C)(C)N(CCC(=O)c1cc2ccccc2s1)Cc1ccccc1`, 210 nM.
For `O=C(CCN(CCO)CCO)c1ccco1` the value was 360 nM; for `Cc1ccc(C(=O)CCN(CCO)CCO)o1`, 6500 nM; for `CC(C)N(CCC(=O)c1nccs1)Cc1ccccc1`, 3200 nM.
For `CC(C)(C)N(CCC(=O)c1cccs1)Cc1ccccc1` the value was 440 nM.
With `CC(C)(C)N(CCC(=O)c1ccsc1)Cc1ccccc1`, inhibition was half-maximal at 11000 nM (IC50).
For `CC(C)(C)N(CCO)CCC(=O)c1cccnc1` the value was 7800 nM; for `CN(CCO)CCC(=O)c1ccncc1`, 7900 nM; for `O=C(CCN(CCO)CCO)c1cccnc1`, 3300 nM.
As for `CN(CCC(=O)c1ccco1)Cc1ccccc1`, the figure is 1800 nM; as for `CC(C)N(CCO)CCC(=O)c1cnccn1`, 6900 nM; as for `CC(C)N(CCC(=O)c1ccco1)Cc1ccccc1`, 320 nM.
The compound `CC(C)N(CCC(=O)c1cccs1)Cc1ccccc1` returned an IC50 of 1400 nM.
In turn, `CC(C)N(CCC(=O)c1ccc(Cl)cc1)Cc1ccccc1` had an IC50 of 1400 nM.
For `CC(C)N(CCO)CCC(=O)c1ccc(C#N)cc1` the value was 6100 nM.
As for `CCN(CCC(=O)c1ccncc1)Cc1ccccc1`, the figure is 1400 nM; as for `CN(CCO)CCC(=O)c1cnccn1`, 9900 nM; as for `O=C(CCN(CCO)Cc1ccccc1)c1ccsc1`, 12000 nM.
For `CC(C)(C)N(CCC(=O)c1ccc(Cc2ccccc2)cc1)Cc1ccccc1` the value was 3600 nM; for `CC(C)N(CCO)CCC(=O)c1cc2ccccc2s1`, 9400 nM; for `CCCCN(CCO)CCC(=O)c1ncc(C)s1`, 2300 nM.
The compound `CC(C)(C)N(CCC(=O)c1ccc(Cl)cc1)Cc1ccccc1` gave an IC50 of 700 nM.
As for `CC(C)N(CCC(=O)c1cc(Cl)sc1Cl)Cc1ccccc1`, the figure is 980 nM.
As for `O=C(CCN(CCO)Cc1ccccc1)c1cccnc1`, the figure is 2300 nM; as for `CCc1nccnc1C(=O)CCN(Cc1ccccc1)C(C)(C)C`, 1700 nM.
For `CCN(CCC(=O)c1cccnc1)Cc1ccccc1` the value was 1700 nM; for `CC(C)(C)N(CCO)CCC(=O)c1ccncc1`, 11000 nM.
With `CC(C)N(CCO)CCC(=O)c1ccccc1`, the midpoint of inhibition, the IC50, lay at 10000 nM.
As for `O=C(CCN(CCO)CCO)c1nccs1`, the figure is 6900 nM; as for `CCN(CCC(=O)c1ccc(F)cc1)Cc1ccccc1`, 13000 nM; as for `CCN(CCC(=O)c1ccc(Cl)s1)Cc1ccccc1`, 420 nM.
For `CN(CCC(=O)c1nccs1)Cc1ccccc1` the value was 4300 nM; for `CCCCN(CCO)CCC(=O)c1cnccn1`, 1700 nM; for `CN(CCC(=O)c1ccc(Oc2ccccc2)cc1)Cc1ccccc1`, 18000 nM.
For `CC(C)(C)N(CCC(=O)c1ccc(F)cc1)Cc1ccccc1` the value was 1100 nM.
`CCCCN(CCO)CCC(=O)c1ccco1`: the IC50 is 840 nM.
As for `CC(C)(C)N(CCO)CCC(=O)c1cccs1`, the figure is 6800 nM.
As for `CN(CCC(=O)c1ccsc1)Cc1ccccc1`, the figure is 10000 nM; as for `CC(C)N(CCO)CCC(=O)c1nccs1`, 16000 nM; as for `CC(C)N(CCC(=O)c1ccc2c(Cl)cccc2c1)Cc1ccccc1`, 1700 nM.
For `CCCCN(CCO)CCC(=O)c1ccsc1` the value was 12000 nM.
`CCCCN(CCO)CCC(=O)c1ccc(C)o1`: the IC50 was determined as 800 nM.
For `CN(CCC(=O)c1cccs1)Cc1ccccc1` the value was 10000 nM; for `Cc1cnc(C(=O)CCN(Cc2ccccc2)C(C)C)s1`, 850 nM; for `CN(CCC(=O)c1cccnc1)Cc1ccccc1`, 4000 nM.
As for `CCCCN(CCO)CCC(=O)c1ccncc1`, the figure is 2500 nM.
For `CN(CCC(=O)c1ccc(Cl)s1)Cc1ccccc1` the value was 1000 nM.
The compound `O=C(CCN(CCO)CCO)c1cccs1` had an IC50 of 8300 nM.
For `CC(C)(C)N(CCO)CCC(=O)c1nccs1` the value was 10000 nM.
As for `O=C(CCN(CCO)Cc1ccccc1)c1ccc2c(Cl)cccc2c1`, the figure is 1500 nM; as for `CC(C)N(CCO)CCC(=O)c1ccccn1`, 5400 nM.
In turn, `CCN(CCC(=O)c1cnccn1)Cc1ccccc1` showed an IC50 of 670 nM.
For `CCCCN(CCO)CCC(=O)c1ccccn1` the value was 10000 nM.
For `CN(CCO)CCC(=O)c1cccs1` the value was 4000 nM; for `CCN(CCC(=O)c1nccs1)Cc1ccccc1`, 2600 nM.
For `CC(C)(C)N(CCO)CCC(=O)c1ccco1` the value was 4500 nM; for `CN(CCC(=O)c1cnccn1)Cc1ccccc1`, 1200 nM.
`CC(C)N(CCO)CCC(=O)c1cccs1` came in with an IC50 of 6500 nM. Against the preceding compound, the IC50 is about 5.4-fold higher.
As for `CC(C)(C)N(CCC(=O)c1ccc(C#N)cc1)Cc1ccccc1`, the figure is 1700 nM.
As for `CN(CCC(=O)c1ccccn1)Cc1ccccc1`, the figure is 17000 nM.
For `CC(C)N(CCO)CCC(=O)c1ccco1` the value was 120 nM.
The compound `CC(C)N(CCO)CCC(=O)c1ccc(F)cc1` returned an IC50 of 10000 nM.
For `CC(C)N(CCO)CCC(=O)c1cccnc1` the value was 7400 nM.
Turning to `CN(CCC(=O)c1ccc2ccccc2c1)Cc1ccccc1`, the midpoint of inhibition, the IC50, lay at 21000 nM. This IC50 lies about 2.8-fold higher than the previous one.
As for `CC(C)N(CCO)CCC(=O)c1ccc(Cl)s1`, the figure is 5400 nM; as for `CCCCN(CCO)CCC(=O)c1cccs1`, 19000 nM; as for `CN(CCC(=O)c1ccncc1)Cc1ccccc1`, 2000 nM.
As for `CC(C)N(CCC(=O)c1ccc(Br)s1)Cc1ccccc1`, the figure is 190 nM; as for `Cc1ccc(C(=O)CCN(C)Cc2ccccc2)o1`, 4300 nM.
In the case of `CC(C)(C)N(CCC(=O)c1ccco1)Cc1ccccc1`, the half-maximal inhibitory concentration (IC50) came to 650 nM.
As for `CCc1nccnc1C(=O)CCN(CCO)Cc1ccccc1`, the figure is 18000 nM.
For `CC(C)(C)N(CCO)CCC(=O)c1ccccn1` the value was 12000 nM; for `CC(C)(C)N(CCC(=O)c1cnccn1)Cc1ccccc1`, 570 nM.
As for `O=C(CCN(CCO)CCO)c1ccccn1`, the figure is 5100 nM; as for `O=C(CCN(CCO)Cc1ccccc1)c1ccco1`, 1300 nM.
In the case of `Cc1ccc(C(=O)CCN(CCO)C(C)C)o1`, the half-maximal inhibitory concentration (IC50) amounted to 420 nM.
As for `CCCCN(CCO)CCC(=O)c1cccnc1`, the figure is 2700 nM.
The compound `O=C(CCN(CCO)Cc1ccccc1)c1ccncn1` displayed an IC50 of 4900 nM.
For `Cc1ccc(C(=O)CCN(CCO)Cc2ccccc2)o1` the value was 6600 nM.
Regarding `O=C(CCN(CCO)Cc1ccccc1)c1cnccn1`, half-maximal inhibition (IC50) required 1500 nM.
As for `CN(CCC(=O)c1ccc(Cc2ccccc2)cc1)Cc1ccccc1`, the figure is 26000 nM.
For `CC(C)(C)N(CCC(=O)c1ccncc1)Cc1ccccc1` the value was 1400 nM; for `CC(C)N(CCC(=O)c1cc2ccccc2s1)Cc1ccccc1`, 770 nM.
For `Cc1ccc(C(=O)CCN(Cc2ccccc2)C(C)(C)C)o1` the value was 2300 nM.
`CCN(CCC(=O)c1ccccn1)Cc1ccccc1` yielded an IC50 of 2700 nM.
For `Cc1ccc(C(=O)CCN(Cc2ccccc2)C(C)C)o1` the value was 320 nM.
For `CC(C)N(CCC(=O)c1cccnc1)Cc1ccccc1` the value was 830 nM.
As for `O=C(CCN(CCO)CCO)c1cnccn1`, the figure is 1200 nM; as for `CC(C)N(CCO)CCC(=O)c1cc(Cl)sc1Cl`, 2500 nM.
On to `CC(C)(C)N(CCO)CCC(=O)c1ccc(C#N)cc1`, for which inhibition was half-maximal at 10000 nM (IC50). Against the preceding compound, the IC50 is about 4-fold higher.
As for `CC(C)(C)N(CCC(=O)c1ccc(Cl)s1)Cc1ccccc1`, the figure is 100 nM.
Regarding `O=C(CCN(CCO)Cc1ccccc1)c1cccs1`, the IC50 was 10000 nM.
In the case of `CC(C)N(CCC(=O)c1ccc(Cl)s1)Cc1ccccc1`, the midpoint of inhibition, the IC50, lay at 230 nM.
As for `CCc1nccnc1C(=O)CCN(CCO)CCO`, the figure is 15000 nM.
For `Cc1ccc(C(=O)CCN(C)CCO)o1` the value was 1400 nM; for `CC(C)N(CCC(=O)c1cnccn1)Cc1ccccc1`, 530 nM.
As for `CCN(CCC(=O)c1cccs1)Cc1ccccc1`, the figure is 2100 nM; as for `Cc1ccc(C(=O)CCN(CCO)C(C)(C)C)o1`, 680 nM.
Compound `O=C(CCN(CCO)CCO)c1ccncc1` came in with an IC50 of 3500 nM.
As for `O=C(CCN(CCO)Cc1ccccc1)c1ccccc1`, the figure is 11000 nM; as for `O=C(CCN(CCO)Cc1ccccc1)c1nccs1`, 8500 nM; as for `O=C(CCN(CCO)CCO)c1ccsc1`, 13000 nM.
As for `CC(C)N(CCC(=O)c1ccsc1)Cc1ccccc1`, the figure is 8600 nM; as for `CCN(CCC(=O)c1ccco1)Cc1ccccc1`, 550 nM.
As for `O=C(CCN(CCO)CCO)c1ccc2ccccc2c1`, the figure is 22000 nM.
